For three compounds, lethal dose and development of resistance results are on record in patent publication US20190191690A1, “AGENTS AND DEVICE FOR COMBATING PESTS, IN […] AND MICE, AND METHOD FOR USING THE AGENTS” (priority 2016, published 2019).

The test system of data set [1] is mice. The data set is described as follows: lethal dose in mice. It is filed as in vivo. How it is done: The grayanotoxins have been described in exhaustive terms in literature and the chemical formulae are known. It has become evident that the effects of the substance occur even for low concentrations of the active agent. The lethal dose for grayanotoxin 1 in mice is approx. 5.1 mg per kg live weight and for grayanotoxin 3 approx. 4.9 mg per kg live weight. The substance as an active agent carrier may contain natural and/or synthetic carrier substances or substance mixtures. Natural carrier substances may be preferably selected from the group of natural oils, waxes and honey and their mixtures, emulsions, solutions or dispersions.

Data set [2] deals with mice. As to the kind of experiment: experiments on development of resistance in mice. Type of data set: in vivo.

As for grayanotoxin 3, in the data set on mice [1], the lethal dose entry was “approx. 4.9 mg per kg live weight”.

Regarding `CC(=O)O[C@@H]1[C@H]2CC[C@H]3[C@@](C)(O)[C@@H]4C[C@H](O)C(C)(C)[C@@]4(O)[C@H](O)C[C@@]13C[C@@]2(C)O` [grayanotoxin 1], the lethal dose result in the data set on mice [1] was “approx. 5.1 mg per kg live weight”.

Turning to grayanotoxin, the development of resistance result in the data set with mice [2] was “rare for mice to develop a resistance”.
